Read-outs that look alike come from different tables or passages of the source.
Molecular target: hcGAS (Homo sapiens, UniProt Q8N884)
Test: hcGAS LCMS assay (direct measurement of cGAMP production by LC/MS)
Format: biochemical
Description: cGAS catalyzes the cyclization of ATP and GTP to produce cGAMP, which is the activating ligand of STING. Human cGAS (hcGAS) inhibition can thus be quantified by measuring how much cGAMP is formed either indirectly, by monitoring ATP-depletion as in the hcGAS Kinase-Glo assay (as described below), or directly, such as using the hcGAS LCMS assay (as described below).
2. hGAS LCMS Assay Conditions
Compounds were tested for their hcGAS inhibition activity using direct measurement of cGAMP production by LC/MS. Briefly, compounds were incubated with enzyme and substrates for 4 hours (see Table C), before the reaction was stopped with 3 volumes of 70/30 Acetonitrile/H2O mix containing 0.15 uM cGAMP-^13C10^15N5 as internal standard and mixed for 5 mmn. After centrifugation (3700 rpm, […], […]), 100 uL of each reaction was collected and mixed to equal volume of acetonitrile (MeCN). Samples were then analyzed on Qexactive (Column: XBridge BEH Amide Column, 130 Å, 3.5 μm, 3 mm×50 mm. Mobile phase A: 10 mM Ammonium acetate in 95/5 H2O/MeCN (0.5% DMSO), Mobile phase B: MeCN (0.5% DMSO).
The results of the assay, expressed as IC50 values, are reported in Table D with the following designations: A represents an IC50 value <0.005 μM (with A1 representing an IC50 value <0.0005 μM, A2 representing an IC50 value ≥0.0005 μM and <0.001 μM, and A3 representing an IC50 value ≥0.001 μM and <0.005 μM); B represents an IC50 value ≥0.005 μM and <0.02 μM; C represents an IC50 value ≥0.02 μM and <0.06 μM; and D represents an IC50 value ≥0.06 μM.

[1] = 4 h incubation with enzyme and substrates, cGAMP production by LC/MS, class symbols, read-out: hcGAS LCMS IC50

Chain of hcGAS (Q8N884 whole entry): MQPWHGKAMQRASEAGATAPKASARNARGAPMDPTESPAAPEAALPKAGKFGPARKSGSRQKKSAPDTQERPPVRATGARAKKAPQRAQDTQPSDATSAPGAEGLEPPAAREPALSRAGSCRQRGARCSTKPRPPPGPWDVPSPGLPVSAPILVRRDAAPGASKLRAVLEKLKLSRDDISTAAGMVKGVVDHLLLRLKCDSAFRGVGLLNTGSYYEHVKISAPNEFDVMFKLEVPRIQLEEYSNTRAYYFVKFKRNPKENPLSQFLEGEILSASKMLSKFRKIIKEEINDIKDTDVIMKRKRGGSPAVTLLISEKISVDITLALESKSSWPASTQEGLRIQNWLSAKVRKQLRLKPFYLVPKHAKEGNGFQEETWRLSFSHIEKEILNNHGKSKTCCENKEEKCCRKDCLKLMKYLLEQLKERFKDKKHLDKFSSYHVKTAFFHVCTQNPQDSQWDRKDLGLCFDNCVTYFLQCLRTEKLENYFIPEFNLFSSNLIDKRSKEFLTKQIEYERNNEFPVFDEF

Row | SMILES | IC50 [1] [nM] | IC50 (hcGAS 0.5 nM, ATP 100 μM, GTP 100 μM, dsDNA 25 nM, pH 7.4, 4 h incubation, read-out: hcGAS inhibition IC50 (activity class, Table D)) [nM]
1 | COc1cccc(OC)c1-c1cc(C(=O)Nc2nnc(-n3nccc3N)s2)oc(=O)c1OC[C@@H](CO)N1CCSCC1 [79A*, (R)-N-(5-(5-amino-1H-pyrazol-1-yl)-1,3,4-thiadiazol-2-yl)-4-(2,6-dimethoxyphenyl)-3-(3-hydroxy-2-thiomorpholinopropoxy)-2-oxo-2H-pyran-6-carboxamide] | 1 to 5 | 
2 | COCCOc1c(-c2c(C#N)ccnc2OC)cc(C(=O)Nc2nnc(-n3nccc3N)s2)oc1=O [Compound 66, N-(5-(5-amino-1H-pyrazol-1-yl)-1,3,4-thiadiazol-2-yl)-4-(4-cyano-2-methoxypyridin-3-yl)-3-(2-methoxyethoxy)-2-oxo-2H-pyran-6-carboxamide] | 0.5 to 1 | 
3 | COc1cccc(OC)c1-c1cc(C(=O)Nc2nnc(-n3nccc3N)s2)oc(=O)c1OC[C@@H](C)OC [Compound 54, (R)-N-(5-(5-amino-1H-pyrazol-1-yl)-1,3,4-thiadiazol-2-yl)-4-(2,6-dimethoxyphenyl)-3-(2-methoxypropoxy)-2-oxo-2H-pyran-6-carboxamide] | 0.5 to 1 | 
4 | COc1cccc(OC)c1-c1cc(C(=O)Nc2nnc(-n3nccc3N)s2)oc(=O)c1O[C@H]1CCCC[C@@H]1O (single isomer, unassigned) [110B*] | 0.5 to 1 | 
5 | COc1cccc(OC)c1-c1cc(C(=O)Nc2nnc(-n3nccc3N)s2)oc(=O)c1OC[C@H]1CCCO1 [56B*, (R)-N-(5-(5-amino-1H-pyrazol-1-yl)-1,3,4-thiadiazol-2-yl)-4-(2,6-dimethoxyphenyl)-2-oxo-3-((tetrahydrofuran-2-yl)methoxy)-2H-pyran-6-carboxamide] | 0.5 to 1 | 
6 | COc1cccc(OC)c1-c1cc(C(=O)Nc2nnc(-n3nccc3N)s2)oc(=O)c1OC1CC(O)C1 (single isomer, unassigned) [Compound 57A, N-(5-(5-amino-1H-pyrazol-1-yl)-1,3,4-thiadiazol-2-yl)-4-(2,6-dimethoxyphenyl)-3-((1,3-trans)-3-hydroxycyclobutoxy)-2-oxo-2H-pyran-6-carboxamide] | 0.5 to 1 | 
7 | COCCOc1c(-c2ncc(Cl)cc2OC)cc(C(=O)Nc2nnc(-n3nccc3N)s2)oc1=O [Compound 58, N-(5-(5-amino-1H-pyrazol-1-yl)-1,3,4-thiadiazol-2-yl)-4-(5-chloro-3-methoxypyridin-2-yl)-3-(2-methoxyethoxy)-2-oxo-2H-pyran-6-carboxamide] | 0.5 to 1 | 
8 | COc1cccc(OC)c1-c1cc(C(=O)Nc2nnc(-n3nccc3N)s2)oc(=O)c1O[C@@H]1CCCC[C@H]1O (single isomer, unassigned) [110A*] | 1 to 5 | 
9 | COc1cccnc1-c1cc(C(=O)Nc2nnc(-n3nccc3N)s2)oc(=O)c1O[C@@H](C)CO [Compound 107A, (S)—N-(5-(5-amino-1H-pyrazol-1-yl)-1,3,4-thiadiazol-2-yl)-3-((1-hydroxypropan-2-yl)oxy)-4-(3-methoxypyridin-2-yl)-2-oxo-2H-pyran-6-carboxamide] | 1 to 5 | 
10 | COc1cccnc1-c1cc(C(=O)Nc2nnc(-n3nccc3N)s2)oc(=O)c1O[C@@H]1CC[C@H](O)C1 (single isomer, unassigned) [111A*] | 0.5 to 1 | 
11 | COc1cccc(OC)c1-c1cc(C(=O)Nc2nnc(-n3nccc3N)s2)oc(=O)c1OCCN1CCSCC1=O [Compound 75, N-(5-(5-amino-1H-pyrazol-1-yl)-1,3,4-thiadiazol-2-yl)-4-(2,6-dimethoxyphenyl)-2-oxo-3-(2-(3-oxothiomorpholino)ethoxy)-2H-pyran-6-carboxamide] | 0.5 to 1 | 
12 | COc1cccc(OC)c1-c1cc(C(=O)Nc2nnc(-n3nccc3N)s2)oc(=O)c1O[C@@H](C)CO (single isomer, unassigned) [Compound 55A*] | 0.5 to 1 | 
13 | COCC(C)(C)COc1c(-c2ncccc2OC)cc(C(=O)Nc2nnc(-n3nccc3N)s2)oc1=O [Compound 29, N-(5-(5-amino-1H-pyrazol-1-yl)-1,3,4-thiadiazol-2-yl)-3-(3-methoxy-2,2-dimethylpropoxy)-4-(3-methoxypyridin-2-yl)-2-oxo-2H-pyran-6-carboxamide] | 1 to 5 | 
14 | COc1cccc(OC)c1-c1cc(C(=O)Nc2nnc(-n3nccc3N)s2)oc(=O)c1O[C@H]1CCC[C@H](O)C1 (single isomer, unassigned) [109B*] | 0.5 to 1 | 
15 | COc1c(-c2ccccc2C#N)cc(C(=O)Nc2nnc(-n3nccc3C)s2)oc1=O [Compound 1, 4-(2-cyanophenyl)-3-methoxy-N-(5-(5-methyl-1H-pyrazol-1-yl)-1,3,4-thiadiazol-2-yl)-2-oxo-2H-pyran-6-carboxamide] | 0.5 to 1 | 0.5 to 1
16 | COCCOc1c(-c2ncccc2C#N)cc(C(=O)Nc2nnc(-n3nccc3C)s2)oc1=O [Compound 7, 4-(3-cyanopyridin-2-yl)-3-(2-methoxyethoxy)-N-(5-(5-methyl-1H-pyrazol-1-yl)-1,3,4-thiadiazol-2-yl)-2-oxo-2H-pyran-6-carboxamide] | 1 to 5 | 
17 | COc1cccc(OC)c1-c1cc(C(=O)Nc2nnc(-n3nccc3N)s2)oc(=O)c1OCCOC1CC(O)C1 (stereo not drawn) [102A*, N-(5-(5-amino-1H-pyrazol-1-yl)-1,3,4-thiadiazol-2-yl)-4-(2,6-dimethoxyphenyl)-3-(2-((1s,3s)-3-hydroxycyclobutoxy)ethoxy)-2-oxo-2H-pyran-6-carboxamide] | 0.5 to 1 | 
18 | COc1cccc(OC)c1-c1cc(C(=O)Nc2nnc(-n3nccc3N)s2)oc(=O)c1OCCN1CCO[C@H](CSC)C1 [82A*, (S)-N-(5-(5-amino-1H-pyrazol-1-yl)-1,3,4-thiadiazol-2-yl)-4-(2,6-dimethoxyphenyl)-3-(2-(2-((methylthio)methyl)morpholino)ethoxy)-2-oxo-2H-pyran-6-carboxamide] | 1 to 5 | 
19 | COc1cccc(OC)c1-c1cc(C(=O)Nc2nnc(-n3nccc3N)s2)oc(=O)c1OC(CO)CN1CCOCC1 (racemic) [Rac-87, N-(5-(5-amino-1H-pyrazol-1-yl)-1,3,4-thiadiazol-2-yl)-4-(2,6-dimethoxyphenyl)-3-((1-hydroxy-3-morpholinopropan-2-yl)oxy)-2-oxo-2H-pyran-6-carboxamide] | 1 to 5 | 
20 | COc1cccnc1-c1cc(C(=O)Nc2nnc(-n3nccc3N)s2)oc(=O)c1O[C@H]1CC[C@@H](O)C1 (single isomer, unassigned) [111B*] | 0.5 to 1 | 
21 | COc1cccc(OC)c1-c1cc(C(=O)Nc2nnc(-n3nccc3N)s2)oc(=O)c1OC[C@H](CO)OC [38A*, (S)-N-(5-(5-amino-1H-pyrazol-1-yl)-1,3,4-thiadiazol-2-yl)-4-(2,6-dimethoxyphenyl)-3-(3-hydroxy-2-methoxypropoxy)-2-oxo-2H-pyran-6-carboxamide] | 0.5 to 1 | 
22 | COCC(CN1CCSCC1)Oc1c(-c2c(OC)cccc2OC)cc(C(=O)Nc2nnc(-n3nccc3N)s2)oc1=O (stereo not drawn) [78A*/78B*] | 5 to 20 | 
23 | COc1cccc(OC)c1-c1cc(C(=O)Nc2nnc(-n3nccc3N)s2)oc(=O)c1OC[C@@H]1CCCO1 [56A*, (S)-N-(5-(5-amino-1H-pyrazol-1-yl)-1,3,4-thiadiazol-2-yl)-4-(2,6-dimethoxyphenyl)-2-oxo-3-((tetrahydrofuran-2-yl)methoxy)-2H-pyran-6-carboxamide] | 0.5 to 1 | 
24 | COCC(CN1CCOCC1)Oc1c(-c2c(OC)cccc2OC)cc(C(=O)Nc2nnc(-n3nccc3N)s2)oc1=O (stereo not drawn) [84A*/84B*] | 5 to 20 | 
25 | COc1cccc(OC)c1-c1cc(C(=O)Nc2nnc(-n3nccc3N)s2)oc(=O)c1OCCN1CC2(CSC2)C1 [Compound 65, 3-(2-(2-thia-6-azaspiro[3.3]heptan-6-yl)ethoxy)-N-(5-(5-amino-1H-pyrazol-1-yl)-1,3,4-thiadiazol-2-yl)-4-(2,6-dimethoxyphenyl)-2-oxo-2H-pyran-6-carboxamide] | 0.5 to 1 | 
26 | COc1cccc(OC)c1-c1cc(C(=O)Nc2nnc(-n3nccc3N)s2)oc(=O)c1OCCOCCO [Compound 68, N-(5-(5-amino-1H-pyrazol-1-yl)-1,3,4-thiadiazol-2-yl)-4-(2,6-dimethoxyphenyl)-3-(2-(2-hydroxyethoxy)ethoxy)-2-oxo-2H-pyran-6-carboxamide] | < 0.5 | 
27 | COCCOc1c(-c2c(Cl)cccc2OC)cc(C(=O)Nc2nnc(-n3nccc3N)s2)oc1=O (single isomer, unassigned) [Compound 15A*, (Ra)—N-(5-(5-amino-1H-pyrazol-1-yl)-1,3,4-thiadiazol-2-yl)-4-(2-chloro-6-methoxyphenyl)-3-(2-methoxyethoxy)-2-oxo-2H-pyran-6-carboxamide] | < 0.5 | 
28 | COc1cccnc1-c1cc(C(=O)Nc2nnc(-n3nccc3N)s2)oc(=O)c1O[C@@H]1CCC[C@@H](OC)C1 (single isomer, unassigned) [113A*] | 1 to 5 | 
29 | COCCOc1c(-c2c(OC)cccc2OC)cc(C(=O)Nc2nnc(-c3ncsc3N)s2)oc1=O [Compound 51, N-(5-(5-aminothiazol-4-yl)-1,3,4-thiadiazol-2-yl)-4-(2,6-dimethoxyphenyl)-3-(2-methoxyethoxy)-2-oxo-2H-pyran-6-carboxamide] | 0.5 to 1 | 

Source: patent publication US20260327221A1, “INHIBITORS OF CYCLIC GMP-AMP SYNTHASE AND USES THEREOF” (Ventus Therapeutics U.S., Inc., priority 2023, published 2026)
